Source: the NIST ThermoML archive (doi:10.1021/acs.jced.6b00158)
± gives the expanded uncertainty stated by the source.

Columns and labels:
[1] = 100 kPa, Liquid; for viscosity: Falling or rolling sphere viscometry; for mass density: Vibrating tube method
[2] = xn = mol fraction of the nth substance listed; details: 100 kPa, Liquid, x1 = 1; for viscosity: Falling or rolling sphere viscometry; for mass density: Vibrating tube method

viscosity ([1]; 293.15 K) [mPa·s]	mass density ([1]; 293.15 K) [kg/m3]	viscosity ([1]; 298.15 K) [mPa·s]	mass density ([1]; 298.15 K) [kg/m3]	viscosity ([1]; 303.15 K) [mPa·s]	mass density ([1]; 303.15 K) [kg/m3]	viscosity ([1]; 308.15 K) [mPa·s]	mass density ([1]; 308.15 K) [kg/m3]	viscosity ([1]; 313.15 K) [mPa·s]	mass density ([1]; 313.15 K) [kg/m3]	viscosity ([2]; 293.15 K) [mPa·s]	mass density ([2]; 293.15 K) [kg/m3]	viscosity ([2]; 298.15 K) [mPa·s]	mass density ([2]; 298.15 K) [kg/m3]	viscosity ([2]; 303.15 K) [mPa·s]	mass density ([2]; 303.15 K) [kg/m3]	viscosity ([2]; 308.15 K) [mPa·s]	mass density ([2]; 308.15 K) [kg/m3]	viscosity ([2]; 313.15 K) [mPa·s]	mass density ([2]; 313.15 K) [kg/m3]	SMILES
4.023 ± 0.069	801.96 ± 2	3.404 ± 0.067	798.12 ± 2	2.882 ± 0.065	794.22 ± 2	2.475 ± 0.064	790.27 ± 2	2.097 ± 0.063	786.27 ± 2											CC(C)CO [2-methyl-1-propanol]
2.134 ± 0.063	866.85 ± 2	1.944 ± 0.062	862.31 ± 2	1.786 ± 0.062	857.79 ± 2	1.572 ± 0.062	853.24 ± 2	1.417 ± 0.061	848.71 ± 2											NC1CCCCC1 [cyclohexylamine]
										4.023 ± 0.069	801.96 ± 2	3.404 ± 0.067	798.12 ± 2	2.882 ± 0.065	794.22 ± 2	2.475 ± 0.064	790.27 ± 2	2.097 ± 0.063	786.27 ± 2	CC(C)CO [2-methyl-1-propanol] + NC1CCCCC1
